Test results reported in publication PMC9786284, “Synthesis and Antiproliferative Effect of Halogenated Coumarin Derivatives” (Molecules, 2022).

Legend:
Assay type in all cases: cell-based
[1] = MTT cell viability assay; settings: human, MTT, 24 h, concentration required to inhibit cell proliferation by 50%, mean ± SD
Description: (§1) The cytotoxic effect of coumarins 2a–k was tested on several cancer and normal cell lines: lung cancer cell line (SK-MES-1), thyroid cancer cell lines (K-1; B-CPAP ant TPC-1), lung fibroblast (MRC-5) and thyroid normal cell line (Nthy-ori-3-1) by MTT (3-[4,5-dimethylthiazol-2-yl]-2,5 diphenyltetrazolium bromide) assay.
(§2) The papillary thyroid carcinoma (PTC)-derived cell lines (TPC-1 and B-CPAP) were kindly provided by Dr. Fusco (Medical School, University Federico II of Naples, Naples, Italy). K-1 PTC-derived cell line and non-tumorigenic thyroid Nthy-ori-3-1 cell line were purchased from Health Protection Agency Culture Collections. The PTC-derived cell lines were maintained in DMEM/F12 (Gibco-BRL. Life Technologies, Milan, Italy)] supplemented with 10% fetal bovine serum (Gibco-BRL) at 37 °C in humidified 5% CO2. SK-MES-1 and MRC-5 were purchased from American Type Culture Collection (ATCC) and were maintained in Mem-E medium, supplemented with 10% fetal bovine serum, 100 units/mL penicillin G, and 100 μg/mL streptomycin (Gibco-BRL) at 37 °C in humidified 5% CO2.
(§3) The effect of test compounds on the viability of cells was detected by MTT assay. The thyroid cells (7.5 × 10^3 cells/mL), SK-MES-1, and MRC-5 (8 × 10^4 cells/mL) were seeded into a 96-well plate and allowed to adhere for 16 h to culture plates before the addition of the compounds.
(§4) Then, compounds were added at different concentrations (0.8–100 μM), and cells were further incubated for 24 h. Cells with no treatment were used as a negative control. After incubation, cells were treated with MTT solution for 3 h at 37 °C. Then, the MTT solution was removed, and 150 µL of DMSO was added to the wells. The absorbances were measured at 570 nm using a TECAN microplate reader (Infinite 200, Tecan, Salzburg, Austria). Viability data were reported as % of control (untreated cells) for each cell line.

[2] = tested on: SK-MES-1 lung cancer cell line; assay: MTT cell viability assay; settings: Homo sapiens; SK-MES-1; MTT, 24 h; concentration required to inhibit cell proliferation by 50%; mean ± SD; read-out: CC50
Description: as §1, §2, §3, §4

[3] = tested on: B-CPAP thyroid cancer cell line; assay: MTT cell viability assay; settings: Homo sapiens, BCPAP; B-CPAP; MTT, 24 h; concentration required to inhibit cell proliferation by 50%; mean ± SD; read-out: CC50
Description: as §1, §2, §3, §4

[4] = tested on: K-1 thyroid cancer cell line; assay: MTT cell viability assay; settings: K-1; MTT, 24 h; concentration required to inhibit cell proliferation by 50%; mean ± SD; read-out: CC50
Description: as §1, §2, §3, §4

[5] = tested on: TPC-1 thyroid cancer cell line; assay: MTT cell viability assay; settings: Homo sapiens, TPC1; TPC-1; MTT, 24 h; concentration required to inhibit cell proliferation by 50%; mean ± SD; read-out: CC50
Description: as §1, §2, §3, §4

[6] = tested on: TPC-1 cells; assay: Intracellular ROS production (H2-DCF-DA probe); settings: 20 and 100 μM, 30 to 120 min
Description: (§5) It has been reported that coumarins and their derivatives are able to regulate the reactive oxygen species (ROS). For example, esculetin induces cytotoxicity in pancreatic cancer cells decreasing ROS and protein levels of the ROS-dependent transcription factor NF-κB [49]. On the other end, coumarins induce the generation and accumulation of ROS in cancer cells causing cell cycle arrest and apoptotic cell death. […] Conversely, 2h produces an antiproliferative response in TPC-1 cells by scavenging ROS. In an attempt of a better understanding of the results, such compounds were explored from an electrochemical point of view by means of cyclic voltammetry in anhydrous acetonitrile.
(§6) PTC-derived and control cells were seeded in 96-well plates (7.5 × 10^3/mL) to detect intracellular ROS production and grown for 24 h. Cells were then washed with PBS 1X solution and incubated for 30 min with 2′,7′-dichlorofluorescein diacetate probe (H2-DCF-DA) (Merck, Milan, Italy) (10 μM), as previously described. […] After 1 h of incubation, excess H2-DCF-DA was removed and replaced with PBS, and then ROS levels were measured by using a microplate reader (Infinite 200, Tecan, Salzburg, Austria) at a controlled temperature of 37 °C. The measurement was performed using an excitation of 490 nm and an emission of 520 nm. ROS production was evaluated for 2 h and monitored, taking readings at intervals of 5 min.

[7] = tested on: Nthy-ori-3-1 cells; assay: Intracellular ROS production (H2-DCF-DA probe); settings: only with 100 μM
Description: as §5, §6

[8] = tested on: Nthy-ori3-1 cells; assay: Intracellular reduced and oxidized glutathione (GSH/GSSG) by HPLC-ECD; settings: 20 µM, 24 h
Description: (§7) Redox perturbation was further investigated by measuring intracellular antioxidant species. In Nthy-ori3-1 cells, coumarin 2k at 20 µM improved the GSH concentration measured as GSH/GSSG ratio (p < 0.001), leading to values close to 200% with respect to the untreated cells (100%), while coumarin 2h increased the level of GSH but with less evidence (about 40% more than the untreated control cells, p < 0.01) (Figure 4). […] The Keap1/Nrf2/ARE system is a mechanism that plays a key role in the pathogenesis and progression of several diseases. It is a central defensive mechanism against oxidative stress.
(§8) Reduced glutathione (GSH) and oxidized glutathione (GSSG) levels were determined with high-performance liquid chromatography coupled with an electrochemical detector (HPLC-ECD), as described in previous studies. In detail, Nthy-ori3-1 and TPC-1 cells were seeded in 6-well plates at the density of 1 × 10^5 cells/2 mL and incubated for 24 h. Cells were then treated with 2k and 2h (20 µM) for 24 h. After the incubation, cells were scraped and extracted with 150 µL of 10% meta-phosphoric acid and 150 µL of 0.05% trifluoroacetic acid (TFA) (Merck, Milan, Italy) solution. After centrifugation, 10 µL of supernatant was collected for protein determination, and the remaining part was injected into the HPLC system. GSH and GSSG amounts were measured using an HPLC (Agilent 1260 infinity, Agilent Technologies, Palo Alto, CA, USA) equipped with an electrochemical detector (DECADE II Antec, Leyden, The Netherlands) and an Agilent interface 35900E. A calibration curve was created using standards of GSH and GSSG (Merck, Milan, Italy), injected with different concentrations. Data were collected and expressed as a percentage of the control cells (100%) of the ratio between GSH and GSSG normalized using µg of total proteins.

[9] = tested on: TPC-1 cells; assay: as above; settings: 20 µM, 24 h, untreated cells 100%
Description: as §7, §8

[10] = Nthy-ori-3-1 normal thyroid cells, Nthy-ori-3-1

SMILES: N#Cc1cc2cc(Br)cc(Br)c2oc1=O [2h, 6,8-dibromo-2-oxo-2H-chromene-3-carbonitrile]
- CC50 at 24 h ([1]; MRC-5 lung fibroblasts, MRC-5): > 100 µM
- CC50 at 24 h [1, 10]: > 100 µM
- CC50 [2]: > 100 µM
- CC50 [3]: > 100 µM
- CC50 [4]: 60 ± 3 µM
- CC50 [5]: 90 ± 3.5 µM
- ROS generation [6]: decreased ROS generation
- effect on ROS [7]: antioxidant
- increase in level of GSH over untreated control cells ([8]; more than the untreated control): about 40%
- GSH/GSSG ratio, percentage of untreated cells [9]: up to 500%

SMILES: N#Cc1cc2cc(I)cc(I)c2oc1=O [2k, 6,8-diiodo-2-oxo-2H-chromene-3-carbonitrile]
- CC50 at 24 h ([1]; MRC-5 lung fibroblasts, MRC-5): > 100 µM
- CC50 at 24 h [1, 10]: > 100 µM
- CC50 [2]: > 100 µM
- CC50 [3]: 46 ± 0.2 µM
- CC50 [4]: 57 ± 5 µM
- CC50 [5]: 44 ± 5.5 µM
- ROS generation [6]: significant increase in ROS generation
- effect on ROS [7]: pro-oxidant
- GSH/GSSG ratio, percentage of untreated cells ([8]; untreated cells 100%): about 200%
- GSH/GSSG ratio, percentage of untreated cells [9]: about 200%
